The values that follow come from patent publication EP4512427A1, “ANTIBODY-DRUG CONJUGATES BASED ON MOLECULAR GLUE DEGRADERS AND USES THEREOF” (Mablink Bioscience, priority 2023, dated 2025).

Bounds are passed on as bounds.

Broadly, the Papp A→B is how fast a substance crosses the layer from the apical side. As usually defined, the Papp B→A is how fast a substance crosses the layer from the basolateral side. The term IC50 denotes the concentration that gives 50% inhibition. Higher therefore signals a need for much substance.

One series has as its target T1, MDR1 (Homo sapiens, UniProt P08183).
T1 construct: host or cells: MDCK-MDR1 (Preadyport)
Nature of the series: MDR1 efflux substrate assay in MDCK-MDR1. It counts as in vitro ADME. The conditions noted are these: dog, MDCK-MDR1, 5µM, 60 min, pH 7.4. The procedure:
(§1) MDR1 and BCRP efflux substrate assays were conducted in MDCK-MDR1 and MDCK-BCRP in vitro models (Preadyport™, Solvo Biotech) at Symeres (Nederland). Compound of the invention (donor well concentration of 5µM) were incubated in cell monolayer 24-transwell Preadyport system, using Preadyport recommended pH 7.4 assay buffer (donor and receiver wells). After 60 min of incubation (no shaking), samples are collected and suspended into triple volume of 66% cold acetonitrile. Samples are stored at -20°C until thawed, centrifuged and analyzed by LC-MS. Quinidine was used a positive control for the MDR1 assay, and prazosin was used as a positive control for the BCRP assay. Exatecan was used as a control, known not to be an MDR1 substrate. Residual DMSO content from compounds stock solutions was below 1% (v/v). The assay was performed in duplicate. The quantification of test compounds in donor or receptor compartment is conducted using relative LC/MS peak areas (samples of initial incubation solutions are used as a single point calibrator), without any spiked standard samples. The data is used for estimating apparent permeability (Papp) and calculation of efflux ratio.

The subject of a further series is CycK mRNA. In words: CycK mRNA by RT-qPCR. Format: cell-based, human. The conditions noted are these: JIMT-1 cells, 1µM, 2h. On the procedure:
1×10^6 JIMT-1 cells were plated in 3mL of DMEM/FBS 90:10 (v/v) in 6-well plates and incubated overnight. Cells were treated with the compound 2384 of the invention, with CR8 (a known molecular glue degrader that depletes CycK) or with the proteasome inhibitor MG-132 (MedChemExpress, Cat HY-13259) for 2h. RNA was extracted using the QIAamp RNeasy Mini Kit (cat#74106, Qiagen) according to the manufacturer's protocol. Reverse transcription was performed using SuperScripr™ IV reverse transcriptase (cat#LT02241, Invitrogen). Quantitative PCR was performed using a No ROX Sybr Master Mix in the LightCycler 480 Real-Time PCR system (Roche Life Science).
Cyclin K forward ([…]) and reverse ([…]) primers were purchased from Eurogentec. Gene expression was normalized using ribosomal 28S as the housekeeping gene.
On the technique in general: Quantitative PCR measures a nucleic acid by following its amplification.

The next series has as its target T2, BCRP (Homo sapiens, UniProt Q9UNQ0).
T2 construct: host or cells: MDCK-BCRP (Preadyport)
T2 sequence (Q9UNQ0 1-655): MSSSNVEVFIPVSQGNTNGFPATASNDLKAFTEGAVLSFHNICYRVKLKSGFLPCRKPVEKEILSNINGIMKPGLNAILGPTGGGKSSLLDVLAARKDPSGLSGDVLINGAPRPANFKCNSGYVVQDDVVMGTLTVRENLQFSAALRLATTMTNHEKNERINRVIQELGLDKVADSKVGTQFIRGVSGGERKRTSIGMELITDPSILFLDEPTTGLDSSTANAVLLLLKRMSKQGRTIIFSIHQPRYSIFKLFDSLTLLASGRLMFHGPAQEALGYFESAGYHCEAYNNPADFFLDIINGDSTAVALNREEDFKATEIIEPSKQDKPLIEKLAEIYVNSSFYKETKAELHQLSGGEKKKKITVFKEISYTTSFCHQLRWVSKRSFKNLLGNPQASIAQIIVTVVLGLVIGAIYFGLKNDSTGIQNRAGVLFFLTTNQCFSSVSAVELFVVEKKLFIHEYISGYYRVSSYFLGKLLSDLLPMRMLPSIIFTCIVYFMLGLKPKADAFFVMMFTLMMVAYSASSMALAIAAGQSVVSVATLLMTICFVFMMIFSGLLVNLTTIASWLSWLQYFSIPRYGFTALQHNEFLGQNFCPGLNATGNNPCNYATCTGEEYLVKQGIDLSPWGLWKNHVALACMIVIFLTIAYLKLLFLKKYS
Nature of the series: BCRP efflux substrate assay in MDCK-BCRP. Format: in vitro ADME. The conditions noted are these: dog, pH 7.4, MDCK-BCRP. The procedure:
as §1

The next series deals with T3, CDK12/CycK (Homo sapiens, UniProt Q9NYV4).
T3 construct: GST-fusion or His-tag (not given for this kinase); purchased Reaction Biology, Germany; host or cells: Sf9 insect cells or E.coli
In words: IC50 profiling on top 25 protein kinases. Format: biochemical. The conditions noted are these: titration from 0.1 nM to 10 000 nM. On the procedure:
(§2) Compound 2384 according to the disclosure was subjected to kinase screening assays (performed at Reaction Biology, Germany). […] A radiometric protein kinase assay (33PanQinase® ActivityAssay) was used for measuring the kinase activity of 340 protein kinases. All kinase assays were performed in 96-well FlashPlates™ from Perkin Elmer (Boston, MA, USA) in a 50 µL reaction volume. […] All PKC assays (except the PKC-mu and the PKC-nu assay) additionally contained 1 mM CaCl2, 4 mM EDTA, 5 µg/m! Phosphatidylserine and 1 µg/m! 1,2-Dioleyl-glycerol. The CAMK1D, CAMK2A, CAMK2B, CAMK2D, CAMK2G, CAMK4, CAMKK1, CAMKK2, DAPK2, EEF2K, MYLK, MYLK2 and MYLK3 assays additionally contained 1 µg/ml Calmodulin and 0.5 mM CaCl2. The PRKG1 and PRKG2 assays additionally contained 1 µM cGMP. The DNA-PK assay additionally contained 2.5 µg/ml DNA. The protein kinase reaction cocktails were incubated at 30°C for 60 minutes. The reaction was stopped with 50 µl of 2 % (v/v) H3PO4, plates were aspirated and washed two times with 200 µL 0.9 % (w/v) NaCl. Incorporation of 33Pi (counting of "cpm") was determined with a microplate scintillation counter (Microbeta, Wallac). All protein kinase assays were performed with a BeckmanCoulter Biomek 2000/SL robotic system. All protein kinases provided by RBE were expressed in Sf9 insect cells or in E.coli as recombinant GST-fusion proteins or His-tagged proteins, either as full-length or enzymatically active fragments. All kinases were produced from human cDNAs and purified by either GSH-affinity chromatography or immobilized metal. Affinity tags were removed from a number of kinases during purification. The purity of the protein kinases was examined by SDS-PAGE/Coomassie staining, the identity was checked by mass spectroscopy. Kinases from external vendors were expressed, purified and quality-controlled. Staurosporine was used as positive control.
(§3) Staurosporine was used as positive control.

The next series deals with T4, CDK13/CycK (Homo sapiens, UniProt Q14004).
T4 construct: GST-fusion or His-tag (not given for this kinase); purchased Reaction Biology, Germany; host or cells: Sf9 insect cells or E.coli
Nature of the series: IC50 profiling on top 25 protein kinases. It counts as biochemical. The conditions noted are these: titration from 0.1 nM to 10 000 nM. On the procedure: as §2, §3

The target of another series is T5, CDK9/CycT1 (Homo sapiens, UniProt P50750).
T5 construct: GST-fusion or His-tag (not given for this kinase); purchased Reaction Biology, Germany; host or cells: Sf9 insect cells or E.coli
In words: IC50 profiling on top 25 protein kinases. It counts as biochemical. Particulars: titration from 0.1 nM to 10 000 nM. The procedure:
as §2, §3

A further series has as its target T6, CDK9/CycK (Homo sapiens, UniProt P50750).
T6 construct: GST-fusion or His-tag (not given for this kinase); purchased Reaction Biology, Germany; host or cells: Sf9 insect cells or E.coli
Nature of the series: IC50 profiling on top 25 protein kinases. The conditions noted are these: titration from 0.1 nM to 10 000 nM. It counts as biochemical. On the procedure: as §2, §3

T1 sequence (P08183 whole entry): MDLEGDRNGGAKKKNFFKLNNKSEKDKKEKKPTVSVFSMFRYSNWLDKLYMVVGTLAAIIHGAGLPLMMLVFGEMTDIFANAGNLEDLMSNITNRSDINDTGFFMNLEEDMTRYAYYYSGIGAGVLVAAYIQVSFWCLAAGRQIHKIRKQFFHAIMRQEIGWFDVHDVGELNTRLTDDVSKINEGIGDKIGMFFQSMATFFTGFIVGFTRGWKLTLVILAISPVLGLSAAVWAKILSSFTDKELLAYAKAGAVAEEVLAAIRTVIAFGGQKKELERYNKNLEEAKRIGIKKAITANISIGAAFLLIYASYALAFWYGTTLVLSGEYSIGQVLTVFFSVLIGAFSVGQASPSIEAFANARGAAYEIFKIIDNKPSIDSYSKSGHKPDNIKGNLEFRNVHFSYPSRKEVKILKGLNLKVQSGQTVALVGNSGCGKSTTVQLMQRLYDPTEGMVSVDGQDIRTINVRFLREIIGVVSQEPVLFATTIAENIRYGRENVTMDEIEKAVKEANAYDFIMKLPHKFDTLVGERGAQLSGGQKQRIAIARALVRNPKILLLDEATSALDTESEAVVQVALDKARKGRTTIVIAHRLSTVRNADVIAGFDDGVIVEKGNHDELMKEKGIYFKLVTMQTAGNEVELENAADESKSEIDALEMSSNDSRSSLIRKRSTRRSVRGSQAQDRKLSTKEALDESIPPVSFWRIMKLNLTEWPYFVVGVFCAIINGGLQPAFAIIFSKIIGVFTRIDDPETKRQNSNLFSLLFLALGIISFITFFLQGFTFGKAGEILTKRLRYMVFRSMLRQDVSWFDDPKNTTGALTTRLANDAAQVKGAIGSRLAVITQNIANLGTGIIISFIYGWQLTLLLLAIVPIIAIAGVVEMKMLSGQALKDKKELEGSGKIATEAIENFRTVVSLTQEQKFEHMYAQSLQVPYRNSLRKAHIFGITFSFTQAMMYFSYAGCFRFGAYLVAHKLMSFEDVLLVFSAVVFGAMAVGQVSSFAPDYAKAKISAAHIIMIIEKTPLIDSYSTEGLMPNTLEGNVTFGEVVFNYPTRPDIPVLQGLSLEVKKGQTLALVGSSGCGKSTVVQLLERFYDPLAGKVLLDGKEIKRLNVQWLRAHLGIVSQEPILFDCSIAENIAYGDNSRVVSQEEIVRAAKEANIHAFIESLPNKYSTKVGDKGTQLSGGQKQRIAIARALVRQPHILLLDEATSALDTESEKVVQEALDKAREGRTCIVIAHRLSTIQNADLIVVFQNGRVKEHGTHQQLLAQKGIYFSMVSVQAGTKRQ
T4 sequence (Q14004 whole entry, the tested form may be a part): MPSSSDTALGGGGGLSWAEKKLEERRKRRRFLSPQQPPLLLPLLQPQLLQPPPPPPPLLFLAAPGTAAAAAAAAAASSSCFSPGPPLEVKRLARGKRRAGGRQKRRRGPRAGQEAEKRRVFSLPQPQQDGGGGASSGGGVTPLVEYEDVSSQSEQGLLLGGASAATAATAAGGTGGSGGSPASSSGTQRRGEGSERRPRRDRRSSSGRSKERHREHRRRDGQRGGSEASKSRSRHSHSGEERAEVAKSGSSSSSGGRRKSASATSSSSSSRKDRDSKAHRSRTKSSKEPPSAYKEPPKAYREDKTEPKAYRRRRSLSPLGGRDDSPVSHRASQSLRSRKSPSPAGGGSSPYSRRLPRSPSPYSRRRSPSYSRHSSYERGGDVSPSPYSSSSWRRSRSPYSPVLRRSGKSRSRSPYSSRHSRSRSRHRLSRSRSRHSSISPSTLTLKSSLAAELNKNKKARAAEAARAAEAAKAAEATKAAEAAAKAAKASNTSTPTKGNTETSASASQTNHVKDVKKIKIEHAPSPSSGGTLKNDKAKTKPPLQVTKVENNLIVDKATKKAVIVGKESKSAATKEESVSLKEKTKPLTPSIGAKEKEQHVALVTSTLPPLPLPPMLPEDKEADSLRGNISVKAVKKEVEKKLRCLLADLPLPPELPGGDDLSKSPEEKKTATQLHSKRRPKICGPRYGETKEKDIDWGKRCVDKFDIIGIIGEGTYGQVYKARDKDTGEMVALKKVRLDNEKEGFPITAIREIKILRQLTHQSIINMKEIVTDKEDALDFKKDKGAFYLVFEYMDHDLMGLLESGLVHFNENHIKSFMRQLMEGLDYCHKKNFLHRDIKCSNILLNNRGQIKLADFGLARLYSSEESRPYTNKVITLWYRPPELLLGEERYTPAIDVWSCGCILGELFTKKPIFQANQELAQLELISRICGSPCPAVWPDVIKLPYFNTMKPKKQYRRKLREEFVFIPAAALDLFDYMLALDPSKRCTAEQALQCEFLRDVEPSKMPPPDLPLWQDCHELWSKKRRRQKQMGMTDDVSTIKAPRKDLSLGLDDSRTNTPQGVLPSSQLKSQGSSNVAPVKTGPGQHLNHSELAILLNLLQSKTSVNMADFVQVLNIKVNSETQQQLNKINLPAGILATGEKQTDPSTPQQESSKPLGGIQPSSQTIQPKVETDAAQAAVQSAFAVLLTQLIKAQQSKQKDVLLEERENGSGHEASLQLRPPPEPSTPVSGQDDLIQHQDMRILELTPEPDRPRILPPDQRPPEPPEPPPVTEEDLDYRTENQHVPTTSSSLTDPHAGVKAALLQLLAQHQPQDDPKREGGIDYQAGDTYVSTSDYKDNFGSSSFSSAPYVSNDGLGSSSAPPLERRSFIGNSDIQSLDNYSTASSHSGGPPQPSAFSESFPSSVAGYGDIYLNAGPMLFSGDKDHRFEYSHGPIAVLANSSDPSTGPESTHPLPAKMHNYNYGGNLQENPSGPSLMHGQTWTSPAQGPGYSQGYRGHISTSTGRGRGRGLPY
T4 sequence (O75909 whole entry partner, the tested form may be a part): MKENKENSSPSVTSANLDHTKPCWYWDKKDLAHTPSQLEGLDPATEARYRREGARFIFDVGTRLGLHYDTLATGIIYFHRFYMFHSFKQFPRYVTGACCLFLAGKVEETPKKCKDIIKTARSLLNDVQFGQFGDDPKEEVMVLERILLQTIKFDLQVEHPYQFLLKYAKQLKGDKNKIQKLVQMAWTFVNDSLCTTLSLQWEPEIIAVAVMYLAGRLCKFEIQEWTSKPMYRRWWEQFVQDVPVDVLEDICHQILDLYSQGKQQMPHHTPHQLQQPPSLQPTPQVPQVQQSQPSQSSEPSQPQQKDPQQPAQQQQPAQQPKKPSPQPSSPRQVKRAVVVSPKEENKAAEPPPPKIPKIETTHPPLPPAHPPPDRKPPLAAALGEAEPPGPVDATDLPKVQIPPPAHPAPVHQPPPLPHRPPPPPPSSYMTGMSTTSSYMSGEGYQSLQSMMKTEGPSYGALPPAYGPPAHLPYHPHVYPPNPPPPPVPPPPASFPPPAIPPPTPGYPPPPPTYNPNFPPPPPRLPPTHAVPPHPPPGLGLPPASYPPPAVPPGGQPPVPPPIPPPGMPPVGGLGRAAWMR
T3 sequence (Q9NYV4 whole entry, the tested form may be a part): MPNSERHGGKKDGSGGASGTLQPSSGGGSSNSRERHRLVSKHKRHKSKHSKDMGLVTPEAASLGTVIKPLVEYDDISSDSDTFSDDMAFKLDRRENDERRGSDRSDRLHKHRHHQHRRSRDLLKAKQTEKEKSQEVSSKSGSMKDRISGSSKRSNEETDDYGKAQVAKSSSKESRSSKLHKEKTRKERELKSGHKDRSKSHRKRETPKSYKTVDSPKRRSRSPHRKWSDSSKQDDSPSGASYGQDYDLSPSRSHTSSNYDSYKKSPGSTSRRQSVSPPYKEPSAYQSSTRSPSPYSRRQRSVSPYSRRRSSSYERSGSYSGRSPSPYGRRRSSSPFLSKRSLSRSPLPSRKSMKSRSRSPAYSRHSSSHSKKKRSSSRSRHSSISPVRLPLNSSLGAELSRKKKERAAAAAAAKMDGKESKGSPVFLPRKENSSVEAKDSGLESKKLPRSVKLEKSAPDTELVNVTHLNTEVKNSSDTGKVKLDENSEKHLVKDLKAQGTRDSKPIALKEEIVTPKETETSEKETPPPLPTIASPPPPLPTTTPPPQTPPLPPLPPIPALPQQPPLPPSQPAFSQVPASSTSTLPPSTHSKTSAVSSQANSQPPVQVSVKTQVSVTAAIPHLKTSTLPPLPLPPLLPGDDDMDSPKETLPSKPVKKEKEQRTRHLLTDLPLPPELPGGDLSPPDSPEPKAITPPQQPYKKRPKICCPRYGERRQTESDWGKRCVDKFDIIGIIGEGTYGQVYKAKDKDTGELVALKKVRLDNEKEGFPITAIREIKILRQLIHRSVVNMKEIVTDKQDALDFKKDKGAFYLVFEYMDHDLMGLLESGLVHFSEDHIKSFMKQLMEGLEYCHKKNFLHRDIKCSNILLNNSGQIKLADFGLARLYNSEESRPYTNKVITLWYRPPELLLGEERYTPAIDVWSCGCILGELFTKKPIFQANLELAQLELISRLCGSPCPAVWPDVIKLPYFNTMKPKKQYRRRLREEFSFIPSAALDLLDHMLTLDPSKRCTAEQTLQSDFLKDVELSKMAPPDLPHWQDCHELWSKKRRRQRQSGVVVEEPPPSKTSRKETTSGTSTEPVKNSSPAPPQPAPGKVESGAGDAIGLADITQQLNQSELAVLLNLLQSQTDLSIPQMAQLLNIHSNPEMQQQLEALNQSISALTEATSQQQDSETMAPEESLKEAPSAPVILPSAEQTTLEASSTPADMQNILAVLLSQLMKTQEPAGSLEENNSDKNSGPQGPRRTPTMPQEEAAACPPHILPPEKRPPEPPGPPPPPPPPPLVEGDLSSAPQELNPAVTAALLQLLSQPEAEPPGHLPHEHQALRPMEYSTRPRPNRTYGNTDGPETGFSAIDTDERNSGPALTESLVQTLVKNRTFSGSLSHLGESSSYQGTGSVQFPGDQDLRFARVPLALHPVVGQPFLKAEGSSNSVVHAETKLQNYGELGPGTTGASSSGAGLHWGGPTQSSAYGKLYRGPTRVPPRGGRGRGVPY
T3 sequence (O75909 whole entry partner, the tested form may be a part): as the sequence (O75909 whole entry partner, the tested form may be a part) above

Take `N[C@H]1CC[C@H](Nc2nc(NCc3ccc(-c4ccccn4)cc3)n3ncc(Br)c3n2)CC1` [Compound 2384]: the Papp A→B at 1 h, 5 µM at MDR1 (read-out: Papp A (donor) to B (acceptor)) was < 0.25 ×10⁻⁶ cm/s; at BCRP (5µM, 60 min, read-out: Papp A (donor) to B (acceptor)) it was 5.49 ×10⁻⁶ cm/s. The Papp B→A at 1 h, 5 µM was 36.9 ×10⁻⁶ cm/s on MDR1 (read-out: Papp B (acceptor) to A (donor)) and 50.7 ×10⁻⁶ cm/s on BCRP (5µM, 60 min, read-out: Papp B (acceptor) to A (donor)). Besides, the “CycK mRNA level” value with CycK mRNA was “not at the CycK mRNA level”. Moreover, the efflux ratio at 1 h, 5 µM at BCRP (read-out: Efflux ratio B/A) was 9.24. Moreover, the IC50 against CDK12/CycK, on CDK13/CycK, against CDK9/CycT1 and against CDK9/CycK was < 25 nM each time.
